Consider 6 compounds from PMC5838106, “Cathelicidin promotes inflammation by enabling binding of self-RNA to cell surface scavenger receptors” (Scientific Reports, 2018).

Common to all, as to type: cell-based, human
One test concerns NHEKs. Put plainly: Cytokine mRNA expression in NHEKs stimulated with cathelicidin peptide and dsRNA (quantitative real-time PCR). Particulars: for inhibition of the expression of inflammatory cytokines induced by LL37 and U1 RNA: MDC 200 μM, Pitstop-2 25 μM, dynasore 80 μM for 30 minutes.
The test system of a further test is scavenger receptors. The experiment in a line: Proximity ligation assay between U1 RNA and the indicated scavenger receptors. The settings on record: NHEKs, 4 °C, 1 hour; Fig. 3d. On the procedure:
Figure 3 Cathelicidin enables dsRNA to associate with scavenger receptors. (a) Proximity ligation assay for SR-B1 and U1 RNA. NHEKs were cultured with various cathelicidin peptides (2.5 μM) for 10 minutes, then with biotinylated U1 RNA (2.5 μg/mL) at 4 °C for 1 hour before physical proximity of SR-B1 and U1 RNA was determined using a fluorescence-based PLA that produces a red fluorescent signal. Nuclei (blue) are counterstained with DAPI. Scale bar represents 10 μm. (b) Signal count of (a) in 5 visual fields. (c) Proximity ligation assay as in (a) but reaction is detecting proximity of LL37 and SR-A6. Scale bar represents 100 μm. (d) Signal count of proximity ligation assay performed as in (a), but between U1 RNA and the indicated scavenger receptors, each count is PLA complexes observed in 5 visual fields. (e) Skin sections from healthy subject (control), or lesional skin from a psoriasis patient (Psoriasis) were fixed and PLA performed for LL37 and SR-B1. […]
NHEKs seeded into 8 chamber slides (Thermo Fisher Scientific) were incubated with various combination of U1 RNA, poly(I:C), cathelicidin peptides, and fucoidan for 1 hour at 4 °C allowing binding, but not internalization. […] Fluorescent PLA signals were evaluated using fluorescence microscopy (described above). Signals are counted by Duolink ImageTool software version 1.0.1.2 (Sigma-aldrich).

For another test, the system named is THP1 cells. The experiment in a line: Cytokine expression in PMA-treated THP1 cells stimulated with cathelicidin peptide and U1 RNA. The settings on record: PMA-treated THP1; MDC 200 μM, Pitstop-2 25 μM, dynasore 80 μM for 30 minutes, LL37 3 μM and U1 RNA 12.5 μg/mL overnight; n = 3. On the procedure: Figure 1 Inflammatory activity of cathelicidin can be dissociated from antimicrobial function (a) Transcriptomic analysis by RNASeq of primary cultures of normal human epidermal keratinocytes (NHEKs) treated with LL37 (2.5 μM) with or without U1 RNA (2.5 μg/mL) for 24 hours. Shown are gene sets induced > 2 fold over vehicle, and after treatment with LL37, U1 RNA, or the combination of LL37 + U1 RNA. (b) Gene Ontology analysis of gene sets from (a). The number of genes related to each biological process is indicated in parentheses. (c) Amino acid sequence of synthetic cathelicidin peptides used in this study. (d) Antimicrobial assay of cathelicidin peptides against group A streptococcus (GAS). GAS were incubated with various concentrations of each peptide (0–25 μM) for 6 hours, then surviving colonies counted after plating on Todd Hewitt Broth gel. (e) IFN-β1 mRNA abundance and (f) IL-6 mRNA abundance in NHEKs after treatment with cathelicidin peptides (2.5 μM) for 10 minutes, then stimulated with U1 RNA (2.5 μg/mL) for a further 6 hours. (n = 3). (g) IFN-β1 mRNA abundance and (h) IL-6 mRNA abundance in […] (PMA)-treated THP1 cells after treatment with cathelicidin peptides (3 μM) for 10 minutes, then stimulated with U1 RNA (12.5 μg/mL) overnight. (n = 3). Data presented are from one representative experiment of at least two independent experiments. Error bars are SEM of three biological replicates. *P < 0.05, **P < 0.01, ***P < 0.001 by two-way ANOVA with Bonferroni’s post-hoc test. See also Fig. S1.
Primary neonatal human epidermal keratinocytes (NHEKs) was purchased from ThermoFisher Scientific. NHEKs were grown in serum free EpiLife medium supplemented with 0.06 mM CaCl2, EpiLife Defined growth supplements (EDGS) (ThermoFisher Scientific) and antibiotics, and passage 3–5 cells were used for experiment. Cells at 60–80% confluence were starved overnight without EDGS prior to treatment. THP1 was purchased from American Type Culture Collection (ATCC) (Manassas, VA). THP1 was cultured in RPMI-1640 (Sigma) supplemented with 10% Hyclone fetal calf serum (Thermofisher Scientific), and antibiotics, and passage 3–5 cells were used for experiment. Cells at 60–80% confluence were differentiated by Phorbol 12-myristate 13-acetate (PMA, Sigma) for 24 hours and then starved overnight without Hyclone fetal calf serum prior to treatment.
RNA was isolated from NHEKs using Purelink RNA isolation columns (ThermoFisher Scientific) according to the manufacturer’s instructions. RNA was quantified using a Nanodrop spectrophotometer (ThermoFisher Scientific), and up to 500 ng of RNA was reverse-transcribed using the iScript cDNA synthesis kit (Bio-Rad, Irvine, CA). Quantitative real-time PCR reactions were run on a CFX96 real-time detection system (Bio-Rad) using gene-specific primers and TaqMan probes (ThermoFisher Scientific). PCR primers and probes are shown on Table S2.

The mark [1] stands for this setting: LL37 2.5 μM and U1 RNA 2.5 μg/mL 6 hours, n = 3.

In the case of Fucoidan, in the test with NHEKs (various concentrations of fucoidan, LL37 2.5 μM and U1 RNA 2.5 μg/mL 6 hours), the “inhibition of the capacity of LL37 to induce cytokines combined with U1 RNA” value is reported as “potently inhibited”. In the test with NHEKs (various concentrations of fucoidan, LL37 2.5 μM and poly(I:C) 0.3 μg/mL 6 hours), the “inhibition of the capacity of LL37 to induce cytokines combined with poly(I:C)” value is listed as “potently inhibited”. Also, in the test with scavenger receptors, the “effect on LL37-dependent binding of U1 RNA to scavenger receptors (PLA)” value is reported as “significantly diminished binding”.

As to pertussis toxin, in the test on NHEKs (pertussis toxin 0.5 μg/mL or WRW4 1 μM for 1 hour, then LL37 2.5 μM and U1 RNA 2.5 μg/mL 6 hours, n = 3), the “effect on expression of IL-6 induced by LL37 and U1 RNA” value is recorded as “did not decrease”. As to `Oc1ccc2ccccc2c1SSc1c(O)ccc2ccccc12` [IPA-3], the “effect on IFN-β1 and IL-6 expression induced by LL37 and U1 RNA” value with NHEKs (IPA-3 2.8 nM for 30 minutes, LL37 2.5 μM and U1 RNA 2.5 μg/mL 6 hours, n = 3) is on record as “did not inhibit”. On to `CN(C)c1cccc2c(S(=O)(=O)NCCCCCN)cccc12` [MDC, Monodansylcadaverine], for which the “inhibition of the expression of inflammatory cytokines induced by LL37 and U1 RNA” value (from here on “inhibition … by LL37 and U1 RNA”) in the test on THP1 cells and in the test with NHEKs (setting [1]) was “significant inhibition” in each case. With `O=C(N/N=C/c1ccc(O)c(O)c1)c1cc2ccccc2cc1O` [dynasore], the “inhibition … by LL37 and U1 RNA” value with THP1 cells and in the test on NHEKs (setting [1]) was “significant inhibition” each time. Consider `O=C1NC(=NS(=O)(=O)c2cccc3ccccc23)S/C1=C\c1ccc(Br)cc1` [Pitstop-2^TM], for which the “inhibition … by LL37 and U1 RNA” value with THP1 cells and with NHEKs (setting [1]) was “significant inhibition” in each case.
